Experimental findings from patent publication US9828299B2, “Methods for rendering micellar coordination complexes safe for the treatment of plants and formulations for same” (Innovation Hammer LLC, priority 2012, dated 2017) are described below.

Series [1] concerns Petunia. Put plainly: Effective foliar application dose of safened ketoester formulations (synergism EAA/cosolvent). Format: in vivo.
Series [2] concerns waxy foliar surfaces of oleander leaves. Put plainly: Effective spreading of water droplets on waxy foliar surfaces, determined visually. As to conditions: oleander leaf, visual determination. The source says:
Experimental biology investigations show an exemplary synergism of EAA to random block copolymer (RBC) using the formulations of the invention to visually determine the effect of concentration of the compounds on the effective spreading of water droplets on waxy foliar surfaces of oleander leaves. The following is an exemplary effective spreading of water droplet on a waxy leaf based on EAA synergist: • Leaf Plant Type Effective water droplet spreading • RBC EAA RBC+EAA • Oleander 0.6% 1% 0.3%+0.86%

Series [3] in a line: Critical micelle concentration. Format: physicochemical. The source says:
Ketoesters also are a source of metabolizable micellar nanoparticles for transepidermal transport; i.e., at or above the CMC of a ketoester. For example, when applied to a leaf at or above the CMC 6.48 mol % of the β-ketoester, EAA is an effective wetter and spreader of water-based solutions. This is particularly true of EAA when applied at CMC on leaves of green plants. Furthermore, by bringing the ketoester to CMC, other compounds in solution synergistically rise to CMC. For example, in the embodiments disclosed herein, physical characteristics of the CMC of the ketoester, MAA, are applied to create zinc depots.

Series [4] can be described thus: Solubility of ketoester coordination complex. Here is the method: One suitable coordination complex may be made, for example, by dissolving 10 mg ferric nitrate nonahydrate, in 1 ml water with stirring at room temperature until the solution is clear with all crystals dissolved; to the aqueous iron solution, 1 ml MAA is added with rapid stirring for 5-50 minutes or more to allow formation of the coordination complex. […] Other compositions include the following: micellar ketoester-zinc-ketoester, Zn-MNP; and micellar ketoester-copper-ketoester, Cu-MNP.
A process for novel synthesis of an MNP from iron salt is as follows: The aqueous saturated solution of 1 g ferric chloride hexahydrate is dissolved in 10 ml EAA with rapid stirring for 1 minute or more to the formation of the coordination complex.

Turning to `CCOC(=O)CC(C)=O` [EAA, ethyl acetoacetate], the “effective foliar application dose” value in series [1] worked out at 100 mM. Further, in series [2], the “Effective water droplet spreading (concentration)” value was 1%. In series [3], the “CMC (critical micelle concentration)” value stood at 6.48 mol %.

With `CCOC(=O)CC(C)=O.[Fe+3]` [Fe-EAA, ferric(III)-ethyl acetoacetate], the “solubility in IPA” value in series [4] (IPA) is given as “soluble”. The solubility in water entry in series [4] (water) is “insoluble”.
